# Assay results as given in paper PMC11300463, “Structure basis for sugar specificity of gustatory receptors in insects” (Cell Discovery, 2024).
# Tests used:
# Assay type in all cases: cell-based
# DmGr64a [1] = target: T1, DmGr64a (Drosophila melanogaster, UniProt P83293); assay: calcium imaging, HEK293 cells
# T1 construct: gene Gr64a; expressed in HEK293 cells for function; purified homotetramer for cryo-EM; residues Y234, W260, F333, L338, L339, F342, E399, F403, I420, V438, L439, Q441
# T1 sequence (P83293 1-456): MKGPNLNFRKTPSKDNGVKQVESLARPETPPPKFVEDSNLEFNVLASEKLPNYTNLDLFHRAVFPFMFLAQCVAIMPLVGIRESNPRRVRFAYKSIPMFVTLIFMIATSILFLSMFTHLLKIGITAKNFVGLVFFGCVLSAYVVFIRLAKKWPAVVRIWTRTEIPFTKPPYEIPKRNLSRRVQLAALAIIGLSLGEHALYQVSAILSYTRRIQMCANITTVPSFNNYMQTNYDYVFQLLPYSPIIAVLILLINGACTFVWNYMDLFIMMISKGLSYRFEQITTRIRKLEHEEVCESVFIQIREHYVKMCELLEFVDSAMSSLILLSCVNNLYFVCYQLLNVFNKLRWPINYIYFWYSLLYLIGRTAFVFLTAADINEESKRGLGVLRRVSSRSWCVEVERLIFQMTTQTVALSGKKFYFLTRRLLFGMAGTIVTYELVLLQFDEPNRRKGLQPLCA
# DmGr64a [2] = target: T1, DmGr64a; assay: calcium imaging, HEK293 cells; conditions: activation
# DmoGr43a = target: T2, DmoGr43a (Drosophila mojavensis, UniProt B4KNE2); assay: electrophysiology, HEK293 cells; conditions: activation; also calcium imaging; cryo-EM structure of complex
# T2 construct: gene Dmoj\GI20824; expressed in HEK293 cells for function; purified homotetramer for cryo-EM; printed residues R70, Y312, F313, F315, L386, I418, L419, I420, F422
# T2 sequence (B4KNE2 1-427): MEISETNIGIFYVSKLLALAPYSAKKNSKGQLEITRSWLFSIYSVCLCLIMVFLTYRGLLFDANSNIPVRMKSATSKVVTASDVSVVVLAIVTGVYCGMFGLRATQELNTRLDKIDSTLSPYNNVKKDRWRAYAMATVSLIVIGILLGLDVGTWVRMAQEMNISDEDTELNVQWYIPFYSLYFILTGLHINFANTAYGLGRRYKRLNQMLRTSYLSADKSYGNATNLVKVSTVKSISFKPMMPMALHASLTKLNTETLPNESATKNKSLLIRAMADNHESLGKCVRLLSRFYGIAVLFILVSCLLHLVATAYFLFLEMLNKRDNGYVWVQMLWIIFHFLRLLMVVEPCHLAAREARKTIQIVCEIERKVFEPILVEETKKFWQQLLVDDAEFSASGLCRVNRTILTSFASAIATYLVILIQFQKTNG
EC50 (DmGr64a [1]) [mM],EC50 (DmoGr43a) [mM],SMILES,"calcium imaging, HEK293 cells (DmGr64a [2])"
~1.77,,OC[C@H]1O[C@@](CO)(O[C@H]2O[C@H](CO)[C@@H](O)[C@H](O)[C@H]2O)[C@@H](O)[C@@H]1O [sucrose],
,,OC[C@H]1O[C@H](O[C@H]2O[C@H](CO)[C@@H](O)[C@H](O)[C@H]2O)[C@H](O)[C@@H](O)[C@@H]1O [trehalose],"several sugars including fructose, trehalose, sucrose and maltose were able to activate DmGr64a"
,43 ± 4.69,OCC1(O)OC[C@@H](O)[C@@H](O)[C@@H]1O (some centres unmarked) [fructose],"several sugars including fructose, trehalose, sucrose and maltose were able to activate DmGr64a"
,,OC[C@H]1O[C@H](O[C@H]2[C@H](O)[C@@H](O)C(O)O[C@@H]2CO)[C@H](O)[C@@H](O)[C@@H]1O (some centres unmarked) [maltose],"several sugars including fructose, trehalose, sucrose and maltose were able to activate DmGr64a"
